ChEMBL document CHEMBL1154295, “Potent and selective steroidal inhibitors of 17beta-hydroxysteroid dehydrogenase type 7, an enzyme that catalyzes the reduction of the key hormones estrone and dihydrotestosterone” (J Med Chem, 2009)

Assays:
[1] = molecular target: T1, 3-keto-steroid reductase/17-beta-hydroxysteroid dehydrogenase 7 (Homo sapiens) (UniProt P56937); conditions: HEK293, at 0.3 µM
T1 sequence (whole entry): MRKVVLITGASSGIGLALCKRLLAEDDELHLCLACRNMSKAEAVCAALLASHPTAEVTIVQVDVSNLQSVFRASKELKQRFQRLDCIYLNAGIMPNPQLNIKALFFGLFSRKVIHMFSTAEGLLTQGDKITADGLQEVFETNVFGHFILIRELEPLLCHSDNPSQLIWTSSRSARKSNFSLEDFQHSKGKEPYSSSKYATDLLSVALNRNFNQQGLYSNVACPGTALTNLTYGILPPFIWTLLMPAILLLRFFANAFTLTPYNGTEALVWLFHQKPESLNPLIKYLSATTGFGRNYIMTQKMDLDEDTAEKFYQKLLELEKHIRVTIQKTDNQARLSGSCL
Description: Inhibition of human 17beta-HSD7 expressed in HEK293 cells assessed as inhibition of reduction of [14C]estrone into [14C]estradiol at 0.3 uM after 7 hrs

[2] = molecular target: T1, 3-keto-steroid reductase/17-beta-hydroxysteroid dehydrogenase 7 (Homo sapiens); conditions: HEK293, at 3 µM
Description: Inhibition of human 17beta-HSD7 expressed in HEK293 cells assessed as inhibition of reduction of [14C]estrone into [14C]estradiol at 3 uM after 7 hrs

Row | Compound | inhibition [1] | inhibition [2]
1 | C[C@]12CC[C@H]3[C@@H](CCC4=CC(=O)CC[C@@]43C)[C@@H]1CC[C@@H]2C(=O)CO | 11.2% | 11.9%
2 | COC(=O)c1cc2c(cc1O)CC[C@@H]1[C@@H]2CC[C@@]2(C)[C@H]1CC[C@@]21CCC(C)(C)C(=O)O1 | 21.1% | 30%
3 | C[C@]12CC[C@@H]3c4ccc(O)cc4CC[C@H]3[C@@H]1CC[C@@]21CCC(=O)O1 | 3.9% | 3.1%
4 | CN(C(=O)NC1CCCCC1)[C@H]1CC[C@H]2[C@@H]3CC[C@H]4N(C)C(=O)CC[C@]4(C)[C@H]3CC[C@]12C | 12.2% | 16.3%
5 | CCOc1ccc2c(c1)CC[C@@H]1[C@@H]2CC[C@@]2(C)[C@H]1CC[C@@]21CCC(C)(C)C(=O)O1 | 20.6% | 29.3%
6 | CC1=C(c2ccc(OC(=O)C(C)(C)C)cc2)[C@H](c2ccc(OCCN3CCCCC3)cc2)Oc2cc(OC(=O)C(C)(C)C)ccc21 | 0% | 0%
7 | CN1C(=O)CC[C@]2(C)[C@H]3CC[C@]4(C)[C@@H](NC(=O)C(C)(C)C)CC[C@H]4[C@@H]3CC[C@@H]12 | 13.5% | 55.9%
8 | COc1cc2c(cc1S(N)(=O)=O)CC[C@@H]1[C@@H]2CC[C@]2(C)C(=O)CC[C@@H]12 | 6.4% | 10.3%
9 | CN(C=O)[C@H]1CC[C@H]2[C@@H]3CC[C@H]4N(C)C(=O)CC[C@]4(C)[C@H]3CC[C@]12C | 14.5% | 15.8%
10 | C[C@]12CCC(=O)C[C@@H]1CC[C@@H]1[C@@H]2CC[C@@]2(C)[C@H]1CC[C@@]21CCCC(=O)O1 | 18.6% | 30.9%
11 | CC1(C)CC[C@@]2(CC[C@H]3[C@@H]4CCc5cc(C(=O)Oc6ccccc6)ccc5[C@H]4CC[C@@]32C)OC1=O | 14% | 28.6%
12 | C[C@]12CC[C@@H]3c4ccc(O)cc4CC[C@H]3[C@@H]1CC[C@@H]2O | 1.1% | 0%
13 | CC1=C(c2ccc(O)cc2)[C@H](c2ccc(OCCN3CCCCC3)cc2)Oc2cc(O)ccc21 | 3.1% | 4.2%
14 | CC1(C)CC[C@@]2(CC[C@H]3[C@@H]4CC[C@H]5NC(=O)C=C[C@]5(C)[C@H]4CC[C@@]32C)OC1=O | 5% | 39.6%
15 | CC1(C)CC[C@@]2(CC[C@H]3[C@@H]4CCc5cc(C(N)=S)ccc5[C@H]4CC[C@@]32C)OC1=O | 18.5% | 60.9%
16 | CCCNC(=O)N(C1CC1)[C@H]1CC[C@H]2[C@@H]3CC[C@H]4N(C)C(=O)C=C[C@]4(C)[C@H]3CC[C@]12C | 7.8% | 8.5%
17 | CCCN(C=O)[C@H]1CC[C@H]2[C@@H]3CC[C@H]4N(C)C(=O)CC[C@]4(C)[C@H]3CC[C@]12C | 21.7% | 56.3%
18 | COC(=O)c1ccc2c(c1)CC[C@@H]1[C@@H]2CC[C@@]2(C)[C@H]1CC[C@@]21CCC(C)(C)C(=O)O1 | 15.1% | 49%
19 | CN1C(=O)CC[C@]2(C)[C@H]3CC[C@]4(C)[C@@H](N5CCCC5=O)CC[C@H]4[C@@H]3CC[C@@H]12 | 15.3% | 15.1%
20 | C[C@]12CCC(=O)N[C@@H]1CC[C@@H]1[C@@H]2CC[C@]2(C)[C@@H](N3CCC3=O)CC[C@@H]12 | 15.4% | 20.3%
21 | CC(C)(C)NC(=O)[C@H]1CC[C@H]2[C@@H]3CC=C4C=C(Cl)CC[C@]4(C)[C@H]3CC[C@]12C | 13.4% | 56.8%

Row | Compound | inhibition [1] | inhibition [2]
22 | CC(C)C(=O)N(c1ccc([N+](=O)[O-])c(C(F)(F)F)c1)[C@H]1CC[C@H]2[C@@H]3CC[C@H]4N(C)C(=O)CC[C@]4(C)[C@H]3CC[C@]12C | 13.7% | 71.3%
23 | C[C@]12CC[C@@H]3c4ccc(O)cc4CC[C@H]3[C@@H]1C[C@@H](CCBr)[C@@H]2O | 5.8% | 4.5%
24 | CC1(C)CC[C@@]2(CC[C@H]3[C@@H]4CCc5cc(C(N)=O)ccc5[C@H]4CC[C@@]32C)OC1=O | 11.6% | 27%
25 | CC(C)NC(=O)N(C1CC1)[C@H]1CC[C@H]2[C@@H]3CC[C@H]4N(C)C(=O)CC[C@]4(C)[C@H]3CC[C@]12C | 16.5% | 37.3%
26 | CN1C(=S)CC[C@]2(C)[C@H]3CC[C@@]4(C)[C@@H](CC[C@@]45CCCC(=O)O5)[C@@H]3CC[C@@H]12 | 11.9% | 12.9%
27 | CCCCN(C)C(=O)C[C@@H]1Cc2cc(O)ccc2[C@H]2CC[C@@]3(C)[C@@H](CC[C@@]34CCC(=O)O4)[C@H]12 | 17.1% | 15.5%
28 | CC1(C)CC[C@@]2(CC[C@H]3[C@@H]4CCC5CC(=O)CC[C@]5(C)[C@H]4CC[C@@]32C)OC1=O (stereo not given in full) | 2.2% | 26.4%
29 | C[C@@]12CCC[C@H]1[C@@H]1CCc3cc(O)ccc3[C@H]1CC2 | 4.5% | 6%
30 | CCN(C(=O)c1ccccc1)[C@H]1CC[C@H]2[C@@H]3CC[C@H]4N(C)C(=O)CC[C@]4(C)[C@H]3CC[C@]12C | 63.4% | 99.4%
31 | CCS(=O)(=O)Oc1ccc2c(c1)CC[C@@H]1[C@@H]2CC[C@@]2(C)[C@H]1CC[C@@]21CCC(C)(C)C(=O)O1 | 21% | 60.9%
32 | CC1(C)CC[C@@]2(CC[C@H]3[C@@H]4CCc5cc(O)ccc5[C@H]4CC[C@@]32C)OC1=O | 20.1% | 69.4%
33 | CN1C(=O)CC[C@]2(C)[C@H]3CC[C@]4(C)[C@@H](Nc5ccc([N+](=O)[O-])cc5)CC[C@H]4[C@@H]3CC[C@@H]12 | 40.9% | 88%
34 | C[C@]12CC[C@@H]3c4ccc(O)cc4CC[C@H]3[C@@H]1CC[C@@]21CCCC(=O)O1 | 0% | 13.8%
35 | CCCNC(=O)N(C)[C@H]1CC[C@H]2[C@@H]3CC[C@H]4N(C)C(=O)CC[C@]4(C)[C@H]3CC[C@]12C | 2.7% | 2.2%
36 | CN1C(=S)CC[C@]2(C)[C@H]3CC[C@@]4(C)[C@@H](CC[C@@]45CCCC(=S)O5)[C@@H]3CC[C@@H]12 | 5.3% | 36.5%
37 | COc1cc2c(cc1S(N)(=O)=O)CC[C@@H]1[C@@H]2CC[C@@]2(C)[C@H]1CCC2(O)Cc1ccc(C(C)(C)C)cc1 (stereo not given in full) | 0% | 6.4%
38 | CC(C)(C)NC(=O)[C@H]1CC[C@H]2[C@@H]3CC[C@H]4NC(=O)C=C[C@]4(C)[C@H]3CC[C@]12C | 3.7% | 5.4%
39 | C[C@]12CCC(=O)C=C1CC[C@@H]1[C@@H]2CC[C@@]2(C)[C@H]1CC[C@]2(O)C(=O)CO | 9.8% | 0%
40 | C=CC[C@@]1(O)CC[C@H]2[C@@H]3CC[C@H]4N(C)C(=O)CC[C@]4(C)[C@H]3CC[C@@]21C | 13.3% | 4.9%
41 | O=c1cc(-c2ccccc2)oc2cc(O)cc(O)c12 | 6.8% | 5.1%
42 | C[C@@]12C=CC[C@H]1[C@@H]1CCc3cc(O)ccc3[C@H]1CC2 | 7.5% | 5.8%

Row | Compound | inhibition [1] | inhibition [2]
43 | CC1(C)CC[C@@]2(CC[C@H]3[C@@H]4CCc5cc(C(=O)O)ccc5[C@H]4CC[C@@]32C)OC1=O | 28.1% | 20.9%
44 | CCCNC(=O)N(C1CC1)[C@H]1CC[C@H]2[C@@H]3CC[C@H]4N(C)C(=O)CC[C@]4(C)[C@H]3CC[C@]12C | 12.9% | 41.5%
45 | C[C@]12CCC(=O)N[C@@H]1CC[C@@H]1[C@@H]2CC[C@]2(C)[C@@H](N(C(=O)c3ccccc3)c3ccccc3)CC[C@@H]12 | 24% | 64.1%
46 | CC1(C)CC[C@@]2(CC[C@H]3[C@@H]4CCc5cc(O)c(C(N)=O)cc5[C@H]4CC[C@@]32C)OC1=O | 7.9% | 23.8%
47 | COc1ccc(N(C(=O)C(C)C)[C@H]2CC[C@H]3[C@@H]4CC[C@H]5N(C)C(=O)CC[C@]5(C)[C@H]4CC[C@]23C)cc1 | 41.1% | 99.8%
48 | COc1cc2c(cc1O)CC[C@@H]1[C@@H]2CC[C@]2(C)C(=O)CC[C@@H]12 | 18.4% | 13.4%
49 | C[C@]12CC[C@@H]3c4ccc(S(N)(=O)=O)cc4CC[C@H]3[C@@H]1CCC2=O | 4.2% | 6.1%
50 | CC(=O)[C@@]1(O)CC[C@H]2[C@@H]3CC[C@H]4CC(=O)CC[C@]4(C)[C@H]3CC[C@@]21C | – | 14.5%
51 | C[C@]12CC[C@@H]3c4ccc(O)cc4C[C@@H](CCCCCCCCC[S+]([O-])CCCC(F)(F)C(F)(F)F)[C@H]3[C@@H]1CC[C@@H]2O (stereo not given in full) | – | 15.7%
52 | CC(=O)[C@H]1CC[C@H]2[C@@H]3CC=C4C[C@@H](O)CC[C@]4(C)[C@H]3CC[C@]12C | – | 13.2%
53 | C[C@]12CC[C@@H](O)C[C@@H]1CC[C@@H]1[C@@H]2CC[C@]2(C)C(=O)CC[C@@H]12 | – | 2.2%
54 | C[C@]12CC[C@H]3[C@@H](CC=C4C[C@@H](O)CC[C@@]43C)[C@@H]1CC[C@@H]2O | – | 29.7%
55 | C[C@]12CC[C@@H]3c4ccc(O)cc4CC[C@H]3[C@@H]1CCC2=O | – | 10.1%
56 | CN(C)C(=O)CCCCCCCCCCC1Cc2cc(O)ccc2[C@H]2CC[C@]3(C)[C@@H](O)[C@H](Cl)C[C@H]3[C@H]12 (stereo not given in full) | – | 18.5%
57 | CC(=O)[C@@]1(O)CC[C@H]2[C@@H]3CC=C4C[C@@H](O)CC[C@]4(C)[C@H]3CC[C@@]21C | – | 4.1%
58 | C[C@]12CCC(=O)C=C1CC[C@@H]1[C@@H]2[C@@H](O)C[C@@]2(C)[C@H]1CC[C@]2(O)C(=O)CO | – | 10.3%
59 | C[C@]12CCC(=O)C[C@@H]1CC[C@@H]1[C@@H]2CC[C@]2(C)[C@@H](O)CC[C@@H]12 | – | 49.6%
60 | C[C@]12CC[C@H]3[C@@H](CCC4=CC(=O)CC[C@@]43C)[C@@H]1CC[C@@H]2O | – | 7.5%
61 | C[C@]12CC[C@H](O)C[C@@H]1CC[C@@H]1[C@@H]2CC[C@]2(C)C(=O)CC[C@@H]12 | – | 8.1%
